# Data taken from ChEMBL document CHEMBL3045097, “Synthesis and anticonvulsant evaluation of 2-(substituted benzylidene/ethylidene)-N-(substituted phenyl)hydrazinecarboxamide analogues” (Med Chem Res, 2013).
# Active and inactive are the calls of the source. The rule behind the calls is not given here.
# Legend:
# Mus musculus [1] = assay: Anticonvulsant activity in Mus musculus (mouse) assessed as protection against maximal-electric shock-induced seizures at 30 to 300 mg/kg, ip measured at 0.5 hr; type: functional, organism-based
# Mus musculus [2] = assay: Anticonvulsant activity in Mus musculus (mouse) assessed as protection against maximal-electric shock-induced seizures at 30 to 300 mg/kg, ip measured at 4 hr; type: functional, organism-based
# Mus musculus [3] = assay: Neurotoxicity in Mus musculus (mouse) assessed as motor impairment at 30 to 300 mg/kg, ip measured at 0.5 hr by rotarod test; type: toxicity, organism-based; set-up: dose 30-300 mg/kg, route intraperitoneal; conditions: in vivo
# Mus musculus [4] = assay: Anticonvulsant activity in Mus musculus (mouse) assessed as protection against scMET-induced clonic seizures at 30 to 300 mg/kg, ip measured at 0.5 to 4 hr; type: functional, organism-based
# Mus musculus [5] = assay: Neurotoxicity in Mus musculus (mouse) assessed as motor impairment at 30 to 300 mg/kg, ip measured at 4 hr by rotarod test; type: toxicity, organism-based; set-up: dose 30-300 mg/kg, route intraperitoneal; conditions: in vivo
# Mus musculus [6] = assay: Anticonvulsant activity in i.p. dosed Mus musculus (mouse) assessed as protection against maximal-electric shock-induced seizures measured at 4 hr; type: functional; conditions: ip, read-out: MED
# Mus musculus [7] = assay: Neurotoxicity in i.p. dosed Mus musculus (mouse) assessed as motor impairment measured at 4 hr by rotarod test; type: toxicity, organism-based; conditions: in vivo, ip
# Mus musculus [8] = assay: Anticonvulsant activity in i.p. dosed Mus musculus (mouse) assessed as protection against maximal-electric shock-induced seizures measured at 0.5 hr; type: functional; conditions: ip, read-out: MED
# Mus musculus [9] = assay: Anticonvulsant activity in Mus musculus (mouse) assessed as protection against 6 Hz psychomotor-induced clonic seizures at 100 mg/kg, i.p. measured at 4 hr relative to control; type: functional
# Mus musculus [10] = assay: Neurotoxicity in Mus musculus (mouse) assessed as motor impairment at 100 mg/kg, ip measured at 2 hr by rotarod test relative to control; type: toxicity, organism-based; set-up: dose 100 mg/kg, route intraperitoneal; conditions: in vivo
# Mus musculus [11] = assay: Neurotoxicity in Mus musculus (mouse) assessed as motor impairment at 100 mg/kg, ip measured at 0.5 hr by rotarod test relative to control; type: toxicity, organism-based; set-up: dose 100 mg/kg, route intraperitoneal; conditions: in vivo
# Mus musculus [12] = assay: Anticonvulsant activity in Mus musculus (mouse) assessed as protection against 6 Hz psychomotor-induced clonic seizures at 100 mg/kg, i.p. measured at 0.25 hr relative to control; type: functional; conditions: route intraperitoneal
# Mus musculus [13] = assay: Neurotoxicity in Mus musculus (mouse) assessed as motor impairment at 100 mg/kg, ip measured at 1 hr by rotarod test relative to control; type: toxicity, organism-based; set-up: dose 100 mg/kg, route intraperitoneal; conditions: in vivo
# Mus musculus [14] = assay: Anticonvulsant activity in Mus musculus (mouse) assessed as protection against 6 Hz psychomotor-induced clonic seizures at 100 mg/kg, i.p. measured at 0.5 hr relative to control; type: functional; conditions: route intraperitoneal
# Mus musculus [15] = assay: Anticonvulsant activity in Mus musculus (mouse) assessed as protection against 6 Hz psychomotor-induced clonic seizures at 100 mg/kg, ip measured at 2 hr relative to control; type: functional; conditions: route intraperitoneal
# Mus musculus [16] = assay: Neurotoxicity in Mus musculus (mouse) assessed as motor impairment at 100 mg/kg, ip measured at 0.25 hr by rotarod test relative to control; type: toxicity, organism-based; set-up: dose 100 mg/kg, route intraperitoneal; conditions: in vivo
# Mus musculus [17] = assay: Anticonvulsant activity in Mus musculus (mouse) assessed as protection against 6 Hz psychomotor-induced clonic seizures at 100 mg/kg, i.p. measured at 1 hr relative to control; type: functional; conditions: route intraperitoneal
# Mus musculus [18] = assay: Neurotoxicity in Mus musculus (mouse) assessed as motor impairment at 100 mg/kg, ip measured at 4 hr by rotarod test relative to control; type: toxicity, organism-based; set-up: dose 100 mg/kg, route intraperitoneal; conditions: in vivo
# Mus musculus [19] = assay: Neurotoxicity in i.p. dosed Mus musculus (mouse) assessed as motor impairment measured at 0.5 hr by rotarod test; type: toxicity, organism-based; conditions: in vivo, ip
Structure (SMILES),Activity (Mus musculus [1]),Activity (Mus musculus [2]),Activity (Mus musculus [3]),Activity (Mus musculus [4]),Activity (Mus musculus [5]),minimal effective dose (Mus musculus [6]) [mg/kg],MTC (Mus musculus [7]) [mg/kg],minimal effective dose (Mus musculus [8]) [mg/kg],Activity (Mus musculus [9]),Activity (Mus musculus [10]),Activity (Mus musculus [11]),Activity (Mus musculus [12]) [%],Activity (Mus musculus [13]),Activity (Mus musculus [14]) [%],Activity (Mus musculus [15]) [%],Activity (Mus musculus [16]),Activity (Mus musculus [17]) [%],Activity (Mus musculus [18]) [%],MTC (Mus musculus [19]) [mg/kg]
O=C(NN=C1CCCC1)Nc1ccccc1Cl,inactive,inactive,Non-toxic,inactive,Non-toxic,–,–,–,–,–,–,–,–,–,–,–,–,–,–
O=C(N/N=C/c1cccc(O)c1)Nc1ccccc1Cl,inactive,inactive,Non-toxic,inactive,Non-toxic,–,–,–,–,–,–,–,–,–,–,–,–,–,–
COc1ccc(/C(C)=N/NC(=O)Nc2ccccc2Cl)cc1,–,–,Non-toxic,inactive,–,300,300,300,–,–,–,–,–,–,–,–,–,–,–
NNC(=O)Nc1ccccc1Cl,inactive,inactive,Non-toxic,inactive,Non-toxic,–,–,–,Active,Non-toxic,25%,100,25%,100,100,25%,100,25,–
O=C(N/N=C/c1ccc(Cl)cc1Cl)Nc1ccccc1Cl,inactive,inactive,Non-toxic,inactive,Non-toxic,–,–,–,–,–,–,–,–,–,–,–,–,–,–
Cc1ccc(NC(=O)NN)cc1,–,inactive,Non-toxic,inactive,–,–,300,300,inactive,25%,Non-toxic,100,Non-toxic,50,25,Non-toxic,50,50,–
COc1cc(/C=N/NC(=O)Nc2ccc(C)cc2)ccc1O,inactive,inactive,Non-toxic,inactive,Non-toxic,–,–,–,–,–,–,–,–,–,–,–,–,–,–
O=C(N/N=C/c1ccc(Cl)cc1)Nc1ccccc1Cl,inactive,inactive,Non-toxic,inactive,Non-toxic,–,–,–,–,–,–,–,–,–,–,–,–,–,–
C/C(=N\NC(=O)Nc1ccc(C)cc1)c1ccccc1O,inactive,inactive,Non-toxic,inactive,Non-toxic,–,–,–,–,–,–,–,–,–,–,–,–,–,–
NC(=O)N1c2ccccc2C=Cc2ccccc21 [CARBAMAZEPINE],–,–,–,inactive,–,100,300,30,–,–,–,–,–,–,–,–,–,–,100
